Active and inactive are the calls of the source. The calls are words filed in the database; no cut-off is given here.
Assays:
[1] = target: T1, Serine/threonine protein kinase YCK2 (Candida albicans (strain SC5314 / ATCC MYA-2876) (Yeast), UniProt A0A1D8PKB4); type: cell-based, HEK293
T1 sequence (A0A1D8PKB4 whole entry): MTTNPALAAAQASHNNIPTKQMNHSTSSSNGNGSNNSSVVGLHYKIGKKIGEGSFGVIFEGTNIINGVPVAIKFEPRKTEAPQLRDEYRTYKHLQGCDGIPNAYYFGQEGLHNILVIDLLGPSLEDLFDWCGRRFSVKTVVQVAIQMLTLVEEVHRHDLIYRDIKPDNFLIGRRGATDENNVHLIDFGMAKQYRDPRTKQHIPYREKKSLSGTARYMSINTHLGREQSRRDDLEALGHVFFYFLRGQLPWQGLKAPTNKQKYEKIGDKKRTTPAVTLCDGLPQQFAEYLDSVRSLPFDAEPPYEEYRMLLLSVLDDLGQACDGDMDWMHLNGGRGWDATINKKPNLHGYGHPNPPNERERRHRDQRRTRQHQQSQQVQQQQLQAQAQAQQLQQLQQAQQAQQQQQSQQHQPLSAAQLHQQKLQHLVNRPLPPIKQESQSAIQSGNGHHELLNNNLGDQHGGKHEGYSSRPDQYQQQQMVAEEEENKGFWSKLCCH

[2] = target: T1, Serine/threonine protein kinase YCK2
[3] = target: T2, Mitogen-activated protein kinase 14 (Homo sapiens, UniProt Q16539)
T2 sequence (Q16539 whole entry, canonical isoform): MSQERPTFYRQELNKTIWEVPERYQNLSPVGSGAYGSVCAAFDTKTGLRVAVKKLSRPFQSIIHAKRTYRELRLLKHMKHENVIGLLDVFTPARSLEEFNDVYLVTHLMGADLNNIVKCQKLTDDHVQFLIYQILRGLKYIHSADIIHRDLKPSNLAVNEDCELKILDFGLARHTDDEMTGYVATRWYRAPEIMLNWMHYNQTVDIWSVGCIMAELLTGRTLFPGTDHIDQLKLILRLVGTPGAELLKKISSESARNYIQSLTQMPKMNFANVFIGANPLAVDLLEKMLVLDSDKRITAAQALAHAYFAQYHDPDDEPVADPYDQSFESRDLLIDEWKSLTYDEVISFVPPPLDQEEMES

[4] = target: T3, Casein kinase I isoform delta (Homo sapiens, UniProt P48730); type: cell-based, HEK293
Target sequence in this assay (P48730 whole entry, canonical isoform): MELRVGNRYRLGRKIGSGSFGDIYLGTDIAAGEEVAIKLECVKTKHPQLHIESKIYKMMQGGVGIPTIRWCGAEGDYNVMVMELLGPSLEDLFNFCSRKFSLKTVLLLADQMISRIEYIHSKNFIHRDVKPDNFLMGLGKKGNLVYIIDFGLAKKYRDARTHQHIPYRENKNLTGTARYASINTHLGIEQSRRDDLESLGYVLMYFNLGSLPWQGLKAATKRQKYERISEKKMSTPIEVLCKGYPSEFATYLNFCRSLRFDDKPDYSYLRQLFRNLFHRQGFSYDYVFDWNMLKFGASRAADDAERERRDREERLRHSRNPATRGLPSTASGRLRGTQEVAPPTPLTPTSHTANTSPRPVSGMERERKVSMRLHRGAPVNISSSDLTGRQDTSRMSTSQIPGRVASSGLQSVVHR

[5] = target: Casein kinase I isoform alpha (Homo sapiens, UniProt P48729)
Sequence of Casein kinase I isoform alpha (P48729 whole entry, canonical isoform): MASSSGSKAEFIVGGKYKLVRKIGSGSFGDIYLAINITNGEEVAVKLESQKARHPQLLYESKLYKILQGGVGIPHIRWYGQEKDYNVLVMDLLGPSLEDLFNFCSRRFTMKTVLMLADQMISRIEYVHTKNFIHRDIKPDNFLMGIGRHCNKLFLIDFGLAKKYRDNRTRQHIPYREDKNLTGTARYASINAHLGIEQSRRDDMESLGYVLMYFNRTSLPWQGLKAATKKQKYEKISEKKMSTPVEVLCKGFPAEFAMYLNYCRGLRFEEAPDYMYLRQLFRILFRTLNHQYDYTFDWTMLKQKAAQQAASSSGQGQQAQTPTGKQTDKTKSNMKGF

[6] = target: T4, Casein kinase I isoform epsilon (Homo sapiens, UniProt P49674); type: cell-based, HEK293
Target sequence in this assay (P49674 whole entry, canonical isoform): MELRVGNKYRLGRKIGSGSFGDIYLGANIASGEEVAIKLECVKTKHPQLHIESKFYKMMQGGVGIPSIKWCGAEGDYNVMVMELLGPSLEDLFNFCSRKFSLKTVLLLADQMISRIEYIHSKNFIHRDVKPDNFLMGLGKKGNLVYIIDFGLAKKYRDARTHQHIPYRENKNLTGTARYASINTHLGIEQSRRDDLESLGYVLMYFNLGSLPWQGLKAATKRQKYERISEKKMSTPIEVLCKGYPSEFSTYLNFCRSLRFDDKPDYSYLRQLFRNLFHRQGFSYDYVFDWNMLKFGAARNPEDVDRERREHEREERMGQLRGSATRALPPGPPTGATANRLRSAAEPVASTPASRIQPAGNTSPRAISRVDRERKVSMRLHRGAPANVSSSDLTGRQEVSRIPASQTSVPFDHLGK

[7] = target: T4, Casein kinase I isoform epsilon; assay: Inhibition of human CK1epsilon transfected in HEK293 cells at 10 uM using NanoBRET NanoGlo substrate incubated for 2 hrs in presence of K8 tracer by NanoBRET assay relative to control; type: cell-based
Target sequence in this assay (P49674 whole entry, looked up, canonical isoform): as the sequence (P49674 whole entry, canonical isoform) above

[8] = target: Serine/threonine-protein kinase N3 (Homo sapiens) (UniProt Q6P5Z2); assay: Binding affinity to human PKN3 transfected in HEK293 cells at 0.1 to 10 uM by MIB/MS competition assay; type: cell-based; settings: dose 0.1-10 µM
Sequence of Serine/threonine-protein kinase N3 (Homo sapiens) (Q6P5Z2 whole entry, looked up): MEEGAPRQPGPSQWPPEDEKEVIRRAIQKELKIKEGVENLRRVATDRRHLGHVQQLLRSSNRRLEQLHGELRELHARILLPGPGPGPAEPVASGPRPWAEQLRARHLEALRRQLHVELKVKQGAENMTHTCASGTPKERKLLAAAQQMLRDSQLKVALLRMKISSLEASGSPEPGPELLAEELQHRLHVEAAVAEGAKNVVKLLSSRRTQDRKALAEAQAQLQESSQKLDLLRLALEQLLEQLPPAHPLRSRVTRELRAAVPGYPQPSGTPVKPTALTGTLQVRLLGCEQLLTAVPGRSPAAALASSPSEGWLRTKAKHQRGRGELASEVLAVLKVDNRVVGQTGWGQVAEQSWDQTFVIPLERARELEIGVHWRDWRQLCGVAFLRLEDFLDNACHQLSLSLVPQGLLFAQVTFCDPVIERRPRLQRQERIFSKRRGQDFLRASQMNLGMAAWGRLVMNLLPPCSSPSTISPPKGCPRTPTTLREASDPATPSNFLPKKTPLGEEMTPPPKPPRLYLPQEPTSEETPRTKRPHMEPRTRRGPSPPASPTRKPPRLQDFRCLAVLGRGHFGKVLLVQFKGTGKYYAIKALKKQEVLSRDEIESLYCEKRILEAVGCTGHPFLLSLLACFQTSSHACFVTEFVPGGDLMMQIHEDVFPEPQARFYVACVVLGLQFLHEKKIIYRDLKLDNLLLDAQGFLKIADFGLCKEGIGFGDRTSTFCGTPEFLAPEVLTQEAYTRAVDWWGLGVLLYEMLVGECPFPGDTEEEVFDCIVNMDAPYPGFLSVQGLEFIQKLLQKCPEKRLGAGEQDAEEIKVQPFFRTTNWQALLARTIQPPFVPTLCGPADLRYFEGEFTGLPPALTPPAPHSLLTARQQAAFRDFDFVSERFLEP

[9] = target: T5, Serine/threonine protein kinase YCK2 (Candida albicans (strain SC5314 / ATCC MYA-2876) (Yeast)) (UniProt A0A1D8PKB4); settings: HEK293, dose 10.0 µM
T5 sequence (whole entry): T1 sequence (A0A1D8PKB4 whole entry)

HEK293 [10] = settings: Candida albicans, dose 10.0 µM
HEK293 [11] = settings: Candida albicans, dose 10.0 µM; remark: listed apart in the source
[12] = target: Receptor-interacting serine/threonine-protein kinase 2 (Homo sapiens) (UniProt O43353); assay: Binding affinity to human RIPK2 transfected in HEK293 cells at 0.1 to 10 uM by MIB/MS competition assay; type: cell-based; settings: dose 0.1-10 µM
Sequence of Receptor-interacting serine/threonine-protein kinase 2 (Homo sapiens) (O43353 whole entry): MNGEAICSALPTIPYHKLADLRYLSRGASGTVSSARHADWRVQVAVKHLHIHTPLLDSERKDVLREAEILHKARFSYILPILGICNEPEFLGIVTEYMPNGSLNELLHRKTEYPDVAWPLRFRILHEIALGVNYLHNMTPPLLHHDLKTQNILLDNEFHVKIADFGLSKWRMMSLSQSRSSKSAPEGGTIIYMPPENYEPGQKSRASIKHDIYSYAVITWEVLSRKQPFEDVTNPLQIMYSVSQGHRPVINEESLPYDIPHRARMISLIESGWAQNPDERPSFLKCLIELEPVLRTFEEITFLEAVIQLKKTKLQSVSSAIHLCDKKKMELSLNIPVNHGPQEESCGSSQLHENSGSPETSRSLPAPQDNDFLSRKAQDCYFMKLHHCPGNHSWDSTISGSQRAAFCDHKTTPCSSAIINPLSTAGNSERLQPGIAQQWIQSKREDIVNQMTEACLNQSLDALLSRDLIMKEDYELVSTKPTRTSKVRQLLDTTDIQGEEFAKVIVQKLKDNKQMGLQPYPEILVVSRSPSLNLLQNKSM

HEK293 [13] = settings: Candida albicans, dose 10.0 µM; remark: listed apart in the source
[14] = target: T3, Casein kinase I isoform delta; assay: Binding affinity to human CK1 delta transfected in HEK293 cells at 0.1 to 10 uM by MIB/MS competition assay; type: cell-based; settings: dose 0.1-10 µM
Target sequence in this assay (P48730 whole entry, looked up, canonical isoform): as the sequence (P48730 whole entry, canonical isoform) above

[15] = target: T5, Serine/threonine protein kinase YCK2 (Candida albicans (strain SC5314 / ATCC MYA-2876) (Yeast)); settings: HEK293, dose 10.0 µM; remark: listed apart in the source
[16] = target: Mitogen-activated protein kinase 11 (Homo sapiens) (UniProt Q15759); assay: Binding affinity to human P38beta transfected in HEK293 cells at 0.1 to 10 uM by MIB/MS competition assay; type: cell-based; settings: dose 0.1-10 µM
Sequence of Mitogen-activated protein kinase 11 (Homo sapiens) (Q15759 whole entry, canonical isoform): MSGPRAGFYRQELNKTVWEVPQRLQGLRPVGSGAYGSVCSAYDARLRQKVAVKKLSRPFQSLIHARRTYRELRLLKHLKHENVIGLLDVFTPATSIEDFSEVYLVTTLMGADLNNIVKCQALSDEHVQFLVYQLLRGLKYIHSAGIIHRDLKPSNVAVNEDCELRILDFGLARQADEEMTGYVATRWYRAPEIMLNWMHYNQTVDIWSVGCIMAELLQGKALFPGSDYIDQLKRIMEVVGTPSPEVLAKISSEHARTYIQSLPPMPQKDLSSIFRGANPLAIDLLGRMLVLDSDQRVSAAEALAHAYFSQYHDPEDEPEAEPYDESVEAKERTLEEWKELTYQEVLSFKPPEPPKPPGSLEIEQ

[17] = target: T4, Casein kinase I isoform epsilon; assay: Binding affinity to human CK1epsilon transfected in HEK293 cells at 0.1 to 10 uM by MIB/MS competition assay; type: cell-based; settings: dose 0.1-10 µM
Target sequence in this assay (P49674 whole entry, looked up, canonical isoform): as the sequence (P49674 whole entry, canonical isoform) above

[18] = target: T2, Mitogen-activated protein kinase 14; assay: Inhibition of human P38alpha transfected in HEK293 cells using NanoBRET NanoGlo substrate incubated for 2 hrs in presence of K4 tracer by NanoBRET assay; type: cell-based
[19] = target: Casein kinase I isoform gamma-2 (Homo sapiens) (UniProt P78368); assay: Binding affinity to human CK1gamma 2 transfected in HEK293 cells at 0.1 to 10 uM by MIB/MS competition assay; type: cell-based; settings: dose 0.1-10 µM
Sequence of Casein kinase I isoform gamma-2 (Homo sapiens) (P78368 whole entry, looked up, canonical isoform): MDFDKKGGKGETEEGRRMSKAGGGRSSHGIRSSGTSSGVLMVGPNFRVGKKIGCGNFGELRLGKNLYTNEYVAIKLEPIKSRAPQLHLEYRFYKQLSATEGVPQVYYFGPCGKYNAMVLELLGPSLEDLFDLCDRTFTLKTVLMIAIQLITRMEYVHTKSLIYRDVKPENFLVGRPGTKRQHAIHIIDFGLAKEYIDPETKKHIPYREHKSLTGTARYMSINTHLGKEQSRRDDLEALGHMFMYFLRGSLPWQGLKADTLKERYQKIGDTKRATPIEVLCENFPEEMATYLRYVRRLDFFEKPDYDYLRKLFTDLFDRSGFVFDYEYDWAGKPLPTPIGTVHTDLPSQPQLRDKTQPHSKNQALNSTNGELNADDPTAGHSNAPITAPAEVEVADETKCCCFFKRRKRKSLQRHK

[20] = target: T6, Activin receptor type-1B (Homo sapiens) (UniProt P36896); assay: Binding affinity to human ALK4 transfected in HEK293 cells at 0.1 to 10 uM by MIB/MS competition assay; type: cell-based; settings: dose 0.1-10 µM
T6 sequence (whole entry): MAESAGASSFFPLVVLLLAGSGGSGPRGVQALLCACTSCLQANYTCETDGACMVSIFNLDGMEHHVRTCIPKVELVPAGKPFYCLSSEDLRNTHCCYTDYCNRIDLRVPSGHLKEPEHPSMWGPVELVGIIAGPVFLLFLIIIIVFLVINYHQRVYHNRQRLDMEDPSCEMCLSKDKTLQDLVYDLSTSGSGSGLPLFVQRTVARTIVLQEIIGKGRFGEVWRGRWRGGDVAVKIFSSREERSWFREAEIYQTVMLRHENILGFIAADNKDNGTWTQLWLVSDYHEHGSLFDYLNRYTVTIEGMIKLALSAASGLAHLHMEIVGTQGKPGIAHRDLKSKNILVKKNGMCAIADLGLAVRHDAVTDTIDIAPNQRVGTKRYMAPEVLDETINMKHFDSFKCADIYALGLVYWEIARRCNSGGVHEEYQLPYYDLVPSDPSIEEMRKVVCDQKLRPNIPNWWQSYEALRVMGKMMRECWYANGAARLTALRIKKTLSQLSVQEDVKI

[21] = target: T5, Serine/threonine protein kinase YCK2 (Candida albicans (strain SC5314 / ATCC MYA-2876) (Yeast)); assay: Binding affinity to Candida albicans Yck2 assessed as target engagement by MIB/MS competition assay
Candida albicans [22] = assay: Binding affinity to Candida albicans Hrr25 assessed as target engagement at 0.1 to 10 uM by MIB/MS competition assay; settings: dose 0.1-10 µM
Candida albicans [23] = assay: Antifungal activity against Candida albicans harboring cdr1mutant/mutant assessed as inhibition of fungal growth; type: functional, organism-based
Candida albicans [24] = assay: Antifungal activity against Candida albicans harboring tetO-YCK2/yck2 mutant assessed as inhibition of fungal growth at 100 uM in absence of doxycyclin; type: functional, organism-based
Candida albicans [25] = assay: Binding affinity to Candida albicans Hog1 assessed as target engagement at 0.1 to 10 uM by MIB/MS competition analysis; settings: dose 0.1-10 µM
Candida albicans [26] = assay: Antifungal activity against Candida albicans harboring flu1mutant/mutant assessed as inhibition of fungal growth; type: functional, organism-based
Candida albicans [27] = assay: Antifungal activity against Candida albicans harboring cdr2mutant/mutant assessed as inhibition of fungal growth; type: functional, organism-based
Candida albicans [28] = assay: Antifungal activity against Candida albicans harboring tetO-ERG6/erg6mutant assessed as inhibition of fungal growth in presence of doxycyclin; type: functional, organism-based
Candida albicans [29] = assay: Antifungal activity against wild type Candida albicans CaSS1 at 100 uM; type: functional, organism-based
Candida albicans [30] = assay: Antifungal activity against Candida albicans harboring mdr1mutant/mutant assessed as inhibition of fungal growth; type: functional, organism-based
Candida albicans [31] = assay: Antifungal activity against Candida albicans harboring tetO-YCK2/yck2 mutant assessed as inhibition of fungal growth at 100 uM in presence of doxycyclin; type: functional, organism-based

SMILES	IC50 [1] [µM]	IC50 [2] [µM]	IC50 [3] [µM]	IC50 [4] [µM]	IC50 [6] [µM]	inhibition [7] [%]	IC50 [18] [µM]	other results
CNC(=O)c1nn(C)c2c1C(C)(C)Cc1cnc(Nc3ccc(N4CCN(C)CC4)cc3)nc1-2 [MILCICLIB]	1.1	0.77	> 20	0.2				IC50 [5]: 0.25 µM
Cc1occc1-c1nc(N)c(OC[C@@H](N)Cc2c[nH]c3ccccc23)cc1-c1cc2c(C)n[nH]c2cn1	3.7	0.18		1.4	0.62			
C[C@@H](N)c1ccc(C(=O)Nc2ccnc3[nH]ccc23)cc1 [Y-39983]	> 10	> 8	> 20	> 10	> 10	25		
N#Cc1ccn2c(-c3ccncc3)c(-c3ccc(F)cc3)nc2c1					> 10	25		Activity [8]: Active; log2FC [9]: -2.2; log2FC (HEK293 [10]): -2.2; log2FC (HEK293 [11]): -1.4; Activity [12]: Active; log2FC (HEK293 [13]): -1; Activity [14]: Active; log2FC [15]: -3.5; Activity [16]: Active; Activity [17]: Active
Cc1ccc2c(-c3ccncc3)c(-c3ccc(F)cc3)nn2c1				0.23	0.78		0.044	
N#Cc1ccc2c(-c3ccncc3)c(-c3ccc(F)cc3)nn2c1					> 10	25	0.08	Activity [8]: Active; Activity [19]: Active; Activity [12]: Active; Activity [14]: Active; Activity [17]: Active; Activity [20]: Active
CN1CCC(F)(Cn2cnc(-c3ccc(F)cn3)c2-c2ccnc3[nH]ccc23)CC1	> 10	0.64			0.082			IC50 [5]: 0.014 µM
CC(=O)c1cnc2ccc(-c3cc(Cl)c(O)c(Cl)c3)nc2c1N[C@H]1CC[C@H](CN(C)C)CC1	0.66		0.04				> 10	
Cc1nc(N)sc1-c1ccnc(Nc2ccc(N3CCOCC3)cc2)n1 [CYC-116]	> 10		> 20		~10	> 50		
Cc1n[nH]c2ccc(-c3cc(OC[C@@H](N)Cc4ccccc4)cnc3-c3ccoc3)cc12	0.1			0.1	0.2			Activity [21]: Dose-dependent-effect
CC(C)(C)n1nc(Cc2cccc3ccccc23)c2c(N)ncnc21		> 8	0.75	> 10	0.014		1.6	
CC(C)(C)c1cnc(CSc2cnc(NC(=O)C3CCNCC3)s2)o1 [BMS-387032]	> 10	> 8				25		
CC(C)[C@H](CO)Nc1nc(Nc2cc(N)cc(Cl)c2)c2ncn(C(C)C)c2n1 [AMINOPURVALANOL]	> 10	> 8	> 20	> 10	> 10	25		IC50 [5]: > 20 µM
c1ccc(-c2n[nH]cc2-c2ccnc3ccccc23)nc1			2.6	2.8		< 25	0.76	Activity (Candida albicans [22]): Active; Activity (Candida albicans [23]): inactive; Activity (Candida albicans [24]): Active; Activity (Candida albicans [25]): inactive; Activity (Candida albicans [26]): inactive; Activity (Candida albicans [27]): inactive; Activity (Candida albicans [28]): Active; Activity (Candida albicans [29]): Active; Weakly Active; Activity (Candida albicans [30]): inactive; Activity (Candida albicans [31]): Active
Nc1nc(Nc2ccc(S(N)(=O)=O)cc2)n(C(=S)Nc2c(F)cccc2F)n1	> 10	0.47	> 20		> 10	25		IC50 [5]: > 20 µM
CC(C)n1nc(-c2cc3cc(O)ccc3[nH]2)c2c(N)ncnc21						> 50		

From ChEMBL document CHEMBL6109119, “Chemoproteomic Profiling of C. albicans for Characterization of Antifungal Kinase Inhibitors” (J Med Chem, 2025)
